Measured values reported in patent US20230120564A1, “PYRIDO[3,4-D]PYRIMIDINE DERIVATIVE AND THERAPEUTIC PHARMACEUTIC COMPOSITION COMPRISING SAME” (KOREA INSTITUTE OF SCIENCE AND TECHNOLOGY, priority 2020, published 2023).
pIC50: −log10 of the molar value.

Key:
Ba/F3 (N-Ras G12D) = assay: Inhibition of cell proliferation (GI50); type: cell-based; conditions: Mus musculus, BaF3; mt-NRAS (G12D) Ba/F3 cell line; read-out: Proliferation inhibitory activity (GI50, μM) Ba/F3 (N-Ras G12D)
Protocol: (§1) The inhibitory activities of the compounds of the present invention against the proliferation of the mt-NRAS (G12D) Ba/F3 and […] (mt-NRAS) cell lines were measured and the GI50 values thereof were calculated.

EPHB2 = EPHB2 (Homo sapiens, UniProt P29323); assay: full kinase panel biochemical assay; conditions: single concentration of 1 μM; read-out: percent inhibition of EPHB2
Protocol: (§2) In order to measure the protein kinase inhibitory activity (% inhibition) of the compound of the present invention, biochemical assay was performed in the full kinase panel. As a test compound, Compound No. 4 was used. The percent inhibition of each kinase when treated with the test compound at a single concentration of 1 μM was measured, and the residual enzyme activity values (%) of the kinases were calculated. Kinases whose calculated residual enzyme activity values (%) was 30% or less (i.e., kinases inhibited by 70% or more) are as follows: ABL1, ABL2/ARG, ACK1, ARAF, BLK, BMX/ETK, BRAF, BRK, BTK, c-Kit, c-Src, CSK, DDR1, DDR2, EPHA1, EPHA2, EPHA3, EPHA4, EPHA5, EPHA6, EPHA7, EPHA8, EPHB1, EPHB2, EPHB3, EPHB4, ERBB2/HER2, ERBB4/HER4, FGFR1, FGFR2, FGFR3, FGR, FLT1/VEGFR1, FLT4/VEGFR3, FMS, FRK/PTK5, FYN, GCK/MAP4K2, HCK, HGK/MAP4K4, JAK1, JAK2, KDR/VEGFR2, KHS/MAP4K5, LCK, LYN, LYN B, MEKK1, MLK4, MYLK3, NEK5, P38a/MAPK14, P38b/MAPK11, PDGFRa, PDGFRb, PEAK1, RET, RIPK2, RIPK4, SIK2, SRPK1, TAOK3/JIK, TLK1, TNK1, TXK, TYK2, YES/YES1, YSK4/MAP3K19, and ZAK/MLTK.

FGFR1 = FGFR1 (Homo sapiens, UniProt P11362); assay: full kinase panel biochemical assay; conditions: single concentration of 1 μM; read-out: percent inhibition of FGFR1
Protocol: as §2

BTK = BTK (Homo sapiens, UniProt Q06187); assay: full kinase panel biochemical assay; conditions: single concentration of 1 μM; read-out: percent inhibition of BTK
Protocol: as §2

FLT4/VEGFR3 = FLT4/VEGFR3 (Homo sapiens, UniProt P35916); assay: full kinase panel biochemical assay; conditions: single concentration of 1 μM; read-out: percent inhibition of FLT4/VEGFR3
Protocol: as §2

JAK2 = JAK2 (Homo sapiens, UniProt O60674); assay: full kinase panel biochemical assay; conditions: single concentration of 1 μM; read-out: percent inhibition of JAK2
Protocol: as §2

KHS/MAP4K5 = KHS/MAP4K5 (Homo sapiens, UniProt Q9Y4K4); assay: full kinase panel biochemical assay; conditions: single concentration of 1 μM; read-out: percent inhibition of KHS/MAP4K5
Protocol: as §2

EPHA7 = EPHA7 (Homo sapiens, UniProt Q15375); assay: full kinase panel biochemical assay; conditions: single concentration of 1 μM; read-out: percent inhibition of EPHA7
Protocol: as §2

OCI-AML3 (N-Ras Q61L) = assay: Inhibition of cell proliferation (GI50); type: cell-based; conditions: Homo sapiens, OCI-AML-3; OCI-AML3 cell line; read-out: Proliferation inhibitory activity (GI50, μM) OCI-AML3 (N-Ras Q61L)
Protocol: as §1
Referring to the results in Table 2, it can be seen that the compound of the present invention has inhibitory activity against the proliferation of the human acute myeloid leukemia cell line (OCI-AML3) having the NRAS mutant gene, and the effect thereof is remarkable. Therefore, it can be seen that the compound of the present invention is particularly effective as a therapeutic agent for acute myeloid leukemia (AML).

ACK1 = ACK1 (Homo sapiens, UniProt Q07912); assay: Kinase inhibitory activity, IC50; type: biochemical
Protocol: (§3) The inhibitory activities of the compounds of the present invention against two kinases, GCK and ACK1, were measured, and the IC50 values thereof were calculated. As a control, the following compound GNF7 was used.

GCK = target: T1, GCK (Homo sapiens, UniProt Q12851); assay: Kinase inhibitory activity, IC50; type: biochemical
T1 sequence (Q12851 1-820): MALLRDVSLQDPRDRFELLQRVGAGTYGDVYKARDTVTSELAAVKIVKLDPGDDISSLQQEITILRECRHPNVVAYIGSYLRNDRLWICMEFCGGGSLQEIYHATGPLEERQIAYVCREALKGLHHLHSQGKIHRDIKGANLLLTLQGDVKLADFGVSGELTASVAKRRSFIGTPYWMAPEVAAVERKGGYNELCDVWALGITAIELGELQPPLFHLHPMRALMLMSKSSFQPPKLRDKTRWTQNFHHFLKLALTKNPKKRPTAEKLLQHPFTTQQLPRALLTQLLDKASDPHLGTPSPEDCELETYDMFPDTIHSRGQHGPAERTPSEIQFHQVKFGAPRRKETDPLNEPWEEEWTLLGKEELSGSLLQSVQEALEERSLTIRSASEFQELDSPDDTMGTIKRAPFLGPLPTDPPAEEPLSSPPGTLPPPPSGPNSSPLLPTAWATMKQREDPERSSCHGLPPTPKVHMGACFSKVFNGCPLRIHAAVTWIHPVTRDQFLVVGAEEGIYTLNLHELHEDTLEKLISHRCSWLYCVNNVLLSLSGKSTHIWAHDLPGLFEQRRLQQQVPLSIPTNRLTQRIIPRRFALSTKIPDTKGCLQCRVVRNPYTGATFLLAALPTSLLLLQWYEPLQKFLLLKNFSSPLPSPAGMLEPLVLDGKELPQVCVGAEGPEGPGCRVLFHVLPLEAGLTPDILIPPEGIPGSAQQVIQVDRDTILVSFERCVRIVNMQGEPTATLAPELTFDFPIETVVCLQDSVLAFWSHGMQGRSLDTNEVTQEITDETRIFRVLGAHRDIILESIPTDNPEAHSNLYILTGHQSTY
Protocol: as §3

Ba/F3 (parental) = assay: Inhibition of cell proliferation (GI50); type: cell-based; conditions: Mus musculus, BaF3; Ba/F3 (parental) cell line; read-out: Proliferation inhibitory activity (GI50, μM) Ba/F3 (parental)
Protocol: The inhibitory activities of the compounds of the present invention against the proliferation of the Ba/F3 (parental) cell line were measured and the GI50 values thereof were calculated.

Sequence of EPHB2 (P29323 19-1055): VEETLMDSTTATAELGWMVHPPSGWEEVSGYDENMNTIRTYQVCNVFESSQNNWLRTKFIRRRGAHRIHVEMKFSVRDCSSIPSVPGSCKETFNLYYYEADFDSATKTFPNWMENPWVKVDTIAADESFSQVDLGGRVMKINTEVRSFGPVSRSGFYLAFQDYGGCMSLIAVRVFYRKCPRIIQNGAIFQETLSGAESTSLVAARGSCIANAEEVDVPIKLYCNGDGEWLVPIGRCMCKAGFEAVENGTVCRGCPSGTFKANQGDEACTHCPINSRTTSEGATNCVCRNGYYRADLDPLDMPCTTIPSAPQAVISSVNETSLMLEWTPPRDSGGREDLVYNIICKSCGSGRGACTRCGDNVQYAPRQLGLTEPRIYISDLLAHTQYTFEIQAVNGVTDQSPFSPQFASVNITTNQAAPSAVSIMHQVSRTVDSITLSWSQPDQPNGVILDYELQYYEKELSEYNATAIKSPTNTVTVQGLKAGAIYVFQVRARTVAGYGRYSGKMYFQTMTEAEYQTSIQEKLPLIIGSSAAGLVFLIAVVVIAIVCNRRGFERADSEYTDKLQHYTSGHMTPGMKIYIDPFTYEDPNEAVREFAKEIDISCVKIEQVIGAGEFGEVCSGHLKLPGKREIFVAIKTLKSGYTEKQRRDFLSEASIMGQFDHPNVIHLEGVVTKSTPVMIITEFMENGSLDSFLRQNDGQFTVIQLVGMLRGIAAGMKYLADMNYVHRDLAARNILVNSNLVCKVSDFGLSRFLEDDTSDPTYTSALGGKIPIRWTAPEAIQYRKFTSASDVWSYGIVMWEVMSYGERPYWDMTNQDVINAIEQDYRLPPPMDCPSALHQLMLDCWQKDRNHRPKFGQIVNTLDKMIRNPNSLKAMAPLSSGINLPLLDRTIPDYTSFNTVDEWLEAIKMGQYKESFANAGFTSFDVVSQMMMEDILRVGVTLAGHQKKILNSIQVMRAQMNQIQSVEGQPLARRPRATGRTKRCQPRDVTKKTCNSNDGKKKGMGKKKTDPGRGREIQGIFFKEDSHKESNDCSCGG
Sequence of EPHA7 (Q15375 28-998): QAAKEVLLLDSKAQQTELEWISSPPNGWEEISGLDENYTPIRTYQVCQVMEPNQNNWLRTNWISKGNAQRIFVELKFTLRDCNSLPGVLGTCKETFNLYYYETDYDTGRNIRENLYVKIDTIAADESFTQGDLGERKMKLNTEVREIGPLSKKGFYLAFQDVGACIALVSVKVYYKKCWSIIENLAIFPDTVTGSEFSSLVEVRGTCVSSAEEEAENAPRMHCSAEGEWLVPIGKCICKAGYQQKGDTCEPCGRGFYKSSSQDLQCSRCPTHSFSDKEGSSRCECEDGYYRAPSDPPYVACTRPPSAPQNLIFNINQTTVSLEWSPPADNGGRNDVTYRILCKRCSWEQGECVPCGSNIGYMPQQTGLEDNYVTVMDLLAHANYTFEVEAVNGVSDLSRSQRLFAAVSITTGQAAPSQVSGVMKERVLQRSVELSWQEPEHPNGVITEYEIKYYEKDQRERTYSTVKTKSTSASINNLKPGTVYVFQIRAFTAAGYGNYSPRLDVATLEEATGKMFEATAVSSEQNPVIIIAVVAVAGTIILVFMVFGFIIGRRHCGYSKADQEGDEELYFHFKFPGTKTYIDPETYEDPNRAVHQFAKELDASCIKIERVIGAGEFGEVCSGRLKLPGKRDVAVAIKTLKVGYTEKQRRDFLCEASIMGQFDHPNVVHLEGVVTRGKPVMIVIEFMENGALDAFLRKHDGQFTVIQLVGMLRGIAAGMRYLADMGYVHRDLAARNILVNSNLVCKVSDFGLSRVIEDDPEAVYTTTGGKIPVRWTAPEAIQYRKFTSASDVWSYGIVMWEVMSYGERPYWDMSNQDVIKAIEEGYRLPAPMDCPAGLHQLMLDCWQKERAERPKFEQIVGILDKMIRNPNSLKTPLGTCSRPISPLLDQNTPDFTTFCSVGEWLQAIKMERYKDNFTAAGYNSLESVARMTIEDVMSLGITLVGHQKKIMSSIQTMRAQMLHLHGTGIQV
Sequence of FGFR1 (P11362 22-822): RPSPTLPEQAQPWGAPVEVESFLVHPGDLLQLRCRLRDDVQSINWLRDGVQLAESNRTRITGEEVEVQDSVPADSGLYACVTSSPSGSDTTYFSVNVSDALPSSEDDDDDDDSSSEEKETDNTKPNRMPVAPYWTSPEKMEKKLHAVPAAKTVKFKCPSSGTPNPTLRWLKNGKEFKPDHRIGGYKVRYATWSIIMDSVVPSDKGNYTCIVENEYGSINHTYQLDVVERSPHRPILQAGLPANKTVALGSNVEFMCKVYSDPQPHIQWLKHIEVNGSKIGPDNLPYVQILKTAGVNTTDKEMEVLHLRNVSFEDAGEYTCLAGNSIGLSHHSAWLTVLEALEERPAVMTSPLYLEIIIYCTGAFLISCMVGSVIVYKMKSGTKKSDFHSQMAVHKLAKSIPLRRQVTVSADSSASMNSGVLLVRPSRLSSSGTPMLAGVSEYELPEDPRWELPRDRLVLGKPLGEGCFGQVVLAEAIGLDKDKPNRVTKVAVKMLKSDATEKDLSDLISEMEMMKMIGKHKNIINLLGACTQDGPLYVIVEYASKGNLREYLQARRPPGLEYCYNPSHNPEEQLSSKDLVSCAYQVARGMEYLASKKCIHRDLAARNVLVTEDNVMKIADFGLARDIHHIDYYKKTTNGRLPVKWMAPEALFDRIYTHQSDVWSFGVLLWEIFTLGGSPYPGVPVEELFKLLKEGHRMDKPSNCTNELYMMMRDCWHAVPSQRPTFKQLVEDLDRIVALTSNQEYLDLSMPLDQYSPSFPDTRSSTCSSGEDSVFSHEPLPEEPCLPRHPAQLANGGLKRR
Sequence of ACK1 (Q07912 whole entry): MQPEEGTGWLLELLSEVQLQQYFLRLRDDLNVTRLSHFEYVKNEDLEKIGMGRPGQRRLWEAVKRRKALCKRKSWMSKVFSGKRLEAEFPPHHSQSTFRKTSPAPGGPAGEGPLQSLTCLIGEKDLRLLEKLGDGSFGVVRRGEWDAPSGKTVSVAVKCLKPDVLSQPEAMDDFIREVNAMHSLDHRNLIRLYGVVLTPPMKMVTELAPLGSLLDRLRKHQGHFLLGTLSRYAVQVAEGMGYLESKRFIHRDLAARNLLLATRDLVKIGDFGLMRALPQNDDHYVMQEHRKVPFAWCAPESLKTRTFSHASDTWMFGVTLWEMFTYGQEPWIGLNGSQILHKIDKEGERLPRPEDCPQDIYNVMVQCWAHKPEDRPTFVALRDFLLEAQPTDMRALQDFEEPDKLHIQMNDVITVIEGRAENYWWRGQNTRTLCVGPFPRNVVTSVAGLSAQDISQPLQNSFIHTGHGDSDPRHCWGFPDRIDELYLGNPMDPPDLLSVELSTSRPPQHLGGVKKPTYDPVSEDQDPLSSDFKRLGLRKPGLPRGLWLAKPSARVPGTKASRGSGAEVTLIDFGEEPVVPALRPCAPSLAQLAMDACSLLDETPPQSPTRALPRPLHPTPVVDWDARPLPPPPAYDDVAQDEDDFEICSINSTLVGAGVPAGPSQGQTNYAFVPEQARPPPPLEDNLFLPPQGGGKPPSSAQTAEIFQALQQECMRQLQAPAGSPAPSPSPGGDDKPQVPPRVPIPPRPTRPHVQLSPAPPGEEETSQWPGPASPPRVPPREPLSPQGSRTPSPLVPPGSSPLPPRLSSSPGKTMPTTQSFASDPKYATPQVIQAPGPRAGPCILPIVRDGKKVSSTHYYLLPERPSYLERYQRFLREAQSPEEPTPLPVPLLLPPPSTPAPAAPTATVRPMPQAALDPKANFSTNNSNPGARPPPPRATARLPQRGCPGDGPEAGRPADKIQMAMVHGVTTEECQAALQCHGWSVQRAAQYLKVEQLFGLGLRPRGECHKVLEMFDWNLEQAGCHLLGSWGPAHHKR
Sequence of KHS/MAP4K5 (Q9Y4K4 whole entry): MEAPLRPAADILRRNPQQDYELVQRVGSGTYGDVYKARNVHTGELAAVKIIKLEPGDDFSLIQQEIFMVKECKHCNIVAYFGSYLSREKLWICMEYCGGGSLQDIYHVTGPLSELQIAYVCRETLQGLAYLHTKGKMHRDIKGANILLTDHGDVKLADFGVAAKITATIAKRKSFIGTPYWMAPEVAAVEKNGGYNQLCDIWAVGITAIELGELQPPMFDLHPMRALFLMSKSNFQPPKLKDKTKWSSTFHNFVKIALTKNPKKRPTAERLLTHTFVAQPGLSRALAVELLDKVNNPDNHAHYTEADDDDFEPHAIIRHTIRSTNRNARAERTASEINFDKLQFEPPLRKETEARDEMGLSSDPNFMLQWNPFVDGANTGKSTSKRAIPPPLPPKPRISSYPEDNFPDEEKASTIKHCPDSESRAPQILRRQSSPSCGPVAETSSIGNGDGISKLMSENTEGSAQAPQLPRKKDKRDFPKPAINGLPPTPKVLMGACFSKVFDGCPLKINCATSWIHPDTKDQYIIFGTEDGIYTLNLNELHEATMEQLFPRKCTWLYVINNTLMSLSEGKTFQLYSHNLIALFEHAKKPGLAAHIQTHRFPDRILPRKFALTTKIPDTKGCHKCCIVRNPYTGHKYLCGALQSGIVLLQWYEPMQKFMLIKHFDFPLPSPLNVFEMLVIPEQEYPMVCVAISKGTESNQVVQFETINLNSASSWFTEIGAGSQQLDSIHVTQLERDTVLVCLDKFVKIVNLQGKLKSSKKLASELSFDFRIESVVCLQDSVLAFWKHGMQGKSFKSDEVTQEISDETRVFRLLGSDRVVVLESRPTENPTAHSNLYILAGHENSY

GI50 (Ba/F3 (N-Ras G12D)): < 0.5 µM
inhibition at 1 µM (EPHB2): ≥ 70%
inhibition at 1 µM (FGFR1): ≥ 70%
inhibition at 1 µM (BTK): ≥ 70%
inhibition at 1 µM (FLT4/VEGFR3): ≥ 70%
inhibition at 1 µM (JAK2): ≥ 70%
inhibition at 1 µM (KHS/MAP4K5): ≥ 70%
inhibition at 1 µM (EPHA7): ≥ 70%
GI50 (OCI-AML3 (N-Ras Q61L)): < 0.5 µM
pIC50 (ACK1): > 7.00
pIC50 (GCK): 6.00 to 7.00
SMILES: Cc1ccc(Nc2ncc3cc(-c4cc(NC(=O)c5cccc(C(F)(F)F)c5)ccc4C)ncc3n2)cn1 [Compound No. 4, N-(4-methyl-3-(2-((6-methylpyridin-3-yl)amino)pyrido[3,4-d]pyrimidin-6-yl)phenyl)-3-(trifluoromethyl)benzamide]
GI50 (Ba/F3 (parental)): < 0.5 µM
